Molecules are shown by their SMILES. Counter-ions that a name gives are not always drawn.

Consider seven molecules from patent US20240216362A1, “BENZOTHIAZOLE AND QUINOLINE DERIVATIVES FOR USE IN TREATING KAWASAKI DISEASE” (Shanghai Yao Yuan Biotechnology Co., Ltd., priority 2021, published 2024).

The target of test [1] is T237M hALPK1 mutant (HEK293 A2 cells) (Homo sapiens (Human), UniProt Q96QP1, T237M). Nature of the test: Inhibition of IL-8 secretion in cells expressing T237M ALPK1 mutant. Type of test: cell-based. The following applies: 40 hours, relative to wild-type HEK293 cells. The protocol:
(§1) HEK293 cells were cultured as described above prior to transient transfection with either empty vector or an expression vector encoding (i) human ALPK1 (hALPK1), (ii) hALPK1 with the T237M activating mutation (hALPK1-T237M) (iii) hALPK1 with the V1092A activating mutation (hALPK1-V1092A), or (iv) a kinase dead ALPK1 mutant (hALPK1-T237M-D1194S). Transfection was performed according to manufacturer's protocols (Lipofectamine™ 3000, ThermoFisher). Transfected cells were selected, seeded onto 96-well plates and treated with serial dilutions of the test compounds for 6.5 hr. Following treatment, cell viability was determined using a luminescent cell viability assay (Cell Counting-Lite Assay or “CCL Assay” from Vazyme Biotech Co., Ltd.) and cell free supernatants were collected and analyzed for IL-8 protein by IL-8 ELISA as described above. […] As shown in the figure, very little IL-8 was detectable in cells transfected with any of the empty vector, hALPK1, or the kinase dead hALPK1 mutant. In contrast, both of the activating mutations in hALPK1 induced significant IL-8 secretion.
Next, we tested a representative set of compounds for inhibition of IL-8 secretion in cells expressing each of the activating ALPK1 mutants. T237M and V1092A. […] For the T237M mutant study, we produced an HEK293 cell line (“A2”) stably expressing the T237M hALPK1 mutant. A2 cells were cultured in the presence of test compound (6 uM) for 40 hours total. Fresh medium and compound were added at 24 hours. Cell viability and IL-8 secretion were determined 16 hours after the second addition of compound, using the CCL assay and IL-8 ELISA as described above.

The target in test [2] is hALPK1-V1092A (transiently transfected HEK293 cells) (Homo sapiens (Human), UniProt Q96QP1, V1092A). The test is described as follows: Inhibition of IL-8 secretion in cells expressing V1092A ALPK1 mutant. Type of test: cell-based. Conditions: 24 hours, relative to wild-type HEK293 cells. The method, then: as §1
Chain of hALPK1-V1092A (transiently transfected HEK293 cells) (Q96QP1 whole entry V1092A): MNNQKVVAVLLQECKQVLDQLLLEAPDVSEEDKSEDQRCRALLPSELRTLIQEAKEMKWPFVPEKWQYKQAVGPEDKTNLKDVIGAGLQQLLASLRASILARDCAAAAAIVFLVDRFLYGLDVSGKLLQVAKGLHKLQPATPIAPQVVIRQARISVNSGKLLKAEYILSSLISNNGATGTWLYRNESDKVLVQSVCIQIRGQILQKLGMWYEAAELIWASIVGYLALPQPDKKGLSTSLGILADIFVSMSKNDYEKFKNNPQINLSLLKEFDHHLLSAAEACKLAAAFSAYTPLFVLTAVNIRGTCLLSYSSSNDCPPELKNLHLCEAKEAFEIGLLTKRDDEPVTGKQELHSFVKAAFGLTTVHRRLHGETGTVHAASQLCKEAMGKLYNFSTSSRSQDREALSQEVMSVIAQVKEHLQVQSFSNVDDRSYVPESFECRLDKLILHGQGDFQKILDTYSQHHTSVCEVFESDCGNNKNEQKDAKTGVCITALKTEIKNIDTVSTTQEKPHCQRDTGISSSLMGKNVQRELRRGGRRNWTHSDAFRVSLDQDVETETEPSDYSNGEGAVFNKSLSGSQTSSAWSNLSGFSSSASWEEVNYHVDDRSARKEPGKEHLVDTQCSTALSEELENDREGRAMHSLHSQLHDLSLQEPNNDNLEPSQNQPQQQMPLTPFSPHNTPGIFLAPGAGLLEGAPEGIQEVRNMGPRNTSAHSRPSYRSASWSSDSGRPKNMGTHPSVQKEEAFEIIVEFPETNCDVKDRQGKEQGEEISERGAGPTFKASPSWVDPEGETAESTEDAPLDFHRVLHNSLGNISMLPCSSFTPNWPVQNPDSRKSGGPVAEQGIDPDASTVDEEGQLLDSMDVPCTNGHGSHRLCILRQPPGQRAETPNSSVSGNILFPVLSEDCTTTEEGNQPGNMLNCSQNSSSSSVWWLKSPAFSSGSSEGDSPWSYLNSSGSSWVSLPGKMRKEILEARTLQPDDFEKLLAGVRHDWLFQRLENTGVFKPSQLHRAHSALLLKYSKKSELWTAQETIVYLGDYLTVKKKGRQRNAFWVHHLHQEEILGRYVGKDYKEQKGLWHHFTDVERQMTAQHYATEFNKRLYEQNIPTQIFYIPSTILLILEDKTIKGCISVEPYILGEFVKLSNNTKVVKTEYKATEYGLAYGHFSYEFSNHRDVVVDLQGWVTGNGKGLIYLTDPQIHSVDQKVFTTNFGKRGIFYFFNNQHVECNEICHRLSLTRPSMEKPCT
For the V1092A mutant study shown in Table 4, HEK293 cells were transiently transfected with hALPK1-V1092A or hALPK1 (wildtype) expression vectors and then treated with test compounds for 24 hours. Fresh medium and compound were added at 18 hours. Cell viability and IL-8 secretion were determined 6 hours after the second addition of compound, using the CCL assay and IL-8 ELISA as described above.

A further test has as its target ALPK1 (Homo sapiens (Human), UniProt Q96QP1). Nature of the test: ALPK1 in vitro kinase assay (HTRF, TIFA phosphorylation). Type of test: biochemical. The following applies: ADP-Heptose activated ALPK1, TIFA substrate. The protocol:
ALPK1 kinase activity was measured in an in vitro assay using ADP-Heptose as the ALPK1 ligand and activator of its kinase activity and TIFA protein as the ALPK1 phosphorylation substrate. Since phosphorylated TIFA proteins oligomerize, Homogeneous Time-Resolved Fluorescence (HTRF) was used to measure protein:protein interaction between HA-tagged TIFA proteins as an indicator of TIFA phosphorylation.
In brief, dose-response studies were performed with HEK293 cells cultured in Dulbecco's Modified Eagle Medium (DMEM) supplemented 10% fetal bovine serum (FBS, Hyclone™) containing antibiotics (pen/strep, G418) in 384-well assay plates. Each well contained 0.1 mg TIFA, ALPK1 (2 nM final concentration in reaction mixture) and kinase buffer (100 mM of HEPES pH 7.4, 4 mM DTT, 40 mM MgCl2, 20 mM of β-Glycerol phosphate disodium salt, 0.4 mM of Na3VO4, 0.16 mg/mL). […]
For HTRF, samples were incubated with a Tb cryptate-labeled anti-HA antibody for capturing HA-tagged proteins according to the manufacturer's instructions (PerkinElmer™, CisBio™) and the fluorescence signal was quantified (Tecan Infinite F NANO+). HTRF signals were calculated as the HTRF ratio (ratio of fluorescence measured at 665 nm and 620 nm)×104 (thereby using the signal at 620 nm as an internal standard).
IC50 values were determined using 3- or 4-parameter logistic equation using GraphPad Prism version 6.00. […]
Background: Time-resolved FRET reads energy transfer from a long-lived donor to a nearby acceptor.

Test [3] deals with IL1β mRNA induced by ALPK1 activation in THP-1-derived macrophages. Nature of the test: PMA-differentiated THP-1 cell based assay (IL1β mRNA). The following applies: Homo sapiens; PMA-differentiated THP-1 cells, ALPK1 agonist stimulation 4 h; read-out: IC50 for inhibition of IL1β mRNA. The method, then: Peripheral blood mononuclear cells (PBMCs) from Kawasaki patients show activation of ALPK1-TIFA-IL10μ pathway. We evaluated the ability of ALPK1 inhibitors to suppress IL1β levels following ALPK1 activation in THP-1-derived macrophage cells in which the ALPK1-TIFA-IL1P pathway is activated by an ALPK1 agonist, D-glycero-D-manno-6-fluoro-heptose-1β-S-A DP.
THP-1 cells were cultured in RPMI 1640 containing 10% heat inactivated FBS, penicillin (100 units/ml) and streptomycin (100 μg/ml), and maintained in a humidified incubator with 95% atmospheric air and 5% CO2. Prior to the experiment, THP-1 cells were seeded into 24-well flat-bottom plate at a cell density of […]. Phorbol myristate acetate (PMA; 50 ng/ml) was used to treat THP-1 cells for 48 h, and then THP-1-derived macrophages were obtained. Following treatment THP-1 cells were pretreated with serially diluted compounds for 2 hours and then stimulated with D-glycero-D-manno-6-fluoro-heptose-1β-S-ADP for 4 h. […] The mRNA expression levels IL1β were detected by SYBR green gene expression assays. […] Relative expression was calculated by comparing to vehicle control and the values were plotted as fold induction. All activity results were expressed as the mean of triplicate determinations. IC50 was determined from dose response curve using Prism Software, version 6.00 from GraphPad Software.

For test [4], the system named is ALPK1-dependent innate immunity gene expression. The test is described as follows: Inhibition of ALPK1 in coronary artery, aorta and heart muscle (innate immunity gene mRNA). Type of test: in vivo, Sprague-Dawley (SD) rats. Conditions: SD rats, 40 mpk oral, 2 h before ALPK1 agonist ip, tissue 3 h after agonist, compared with vehicle group. The source says:
To examine if ALPK1 inhibitors can suppress innate immunity genes activated upon ALPK1 activation, SD rats were orally administered compound T007 and gene expression of innate immunity genes was activated by intraperitoneal administration of the ALPK1 agonist, D-glycero-D-manno-6-fluoro-heptose-1β-S-ADP. The coronary artery, aorta and heart muscle tissues were examined for inhibition of ALPK1 inhibitors on innate immunity gene expression.
Twenty male Sprague-Dawley (SD) rats were randomly divided into four groups. A first control group (“normal”) was administered vehicle (0.5% MC) orally, followed 2 hours later with PBS administered by intraperitoneal injection (ip). A second control group (“vehicle”) was administered vehicle (0.5% MC) orally, followed 2 hours later by ip administration of the ALPK1 agonist, D-glycero-D-manno-6-fluoro-heptosc-1β-S-ADP (50 ppk). Treatment groups were administered ALPK1 inhibitors (40 mpk) orally, followed 2 hours later by ip administration of the ALPK1 agonist. The coronary artery, cardiac muscle and aorta from each group were collected 3 hours after administration of the ALPK1 agonist. RNA was isolated and samples were analyzed by RT-PCR for expression of MCP-1 (CCL-2), CCL-7, CXCL-1, CXCL-11, CXCL-10, IL-1β, CCL-5, TNF-α, and IL-6 mRNA. Briefly, total RNA was extracted following the protocol of the Rneasy Mini Kit (QIAGEN, Germany). Messenger RNA was reverse transcribed to cDNA using HiScript Q RT SuperMix for qPCR Kit (Vazyme, Nanjing, China). Quantitative PCR was conducted using AceQ qPCR SYBR Green Master Mix Kit (Vazyme, Nanjing, China) on the QuantStudio 5 applied biosystems (Thermo scientific, USA). Relative mRNA levels were calculated using the 2−ΔΔCT method, and HPRT was used as a reference for gene expression normalization. Data were presented as the gene fold change against their respective expression in the control arm.

The subject of test [5] is ALPK1-dependent gene expression in PBMC. Nature of the test: Inhibition of ALPK1 in PBMC cells (gene mRNA). The following applies: SD rats, 10 mpk oral, 2 h before ALPK1 agonist ip, blood 3 h after agonist, compared with vehicle group. Type of test: in vivo, Sprague-Dawley (SD) rats. The source says:
We examined whether ALPK1 inhibitors can suppress ALPK1-dependent activation of a set of such genes in rats. Animals were orally administered compound T007 and ALPK1-dependent gene expression was induced by intraperitoneal administration of the ALPK1 agonist, D-glycero-D-manno-6-fluoro-heptose-lo-S-ADP. PBMCs were collected and gene expression analyzed, as described in more detail below.
Thirty-six male Sprague-Dawley (SD) rats were randomly divided into six groups. A first control group (“normal”) was administered vehicle (0.5% MC) orally, followed 2 hours later with PBS administered by intraperitoneal injection (ip). A second control group (“vehicle”) was administered vehicle (0.5% MC) orally, followed 2 hours later by ip administration of the ALPK1 agonist, D-glycero-D-manno-6-fluoro-heptose-1β-S-ADP (50 ppk). Treatment groups were administered ALPK1 inhibitors (10 mpk) orally, followed 2 hours later by ip administration of the ALPK1 agonist. […] RNA was isolated and samples were analyzed by RT-PCR for gene expression. […] Quantitative PCR was conducted using AceQ qPCR SYBR Green Master Mix Kit (Vazvme, Nanjing, China) on the QuantStudio 5 applied biosystems (Thermo scientific, USA). Relative mRNA levels were calculated using the 2−ΔΔCT method, and HPRT was used as a reference for gene expression normalization. […]

Chain of T237M hALPK1 mutant (HEK293 A2 cells) (Q96QP1 whole entry T237M): as the sequence (Q96QP1 whole entry V1092A) above, with T237M, A1092V counted along it
Chain of ALPK1 (Q96QP1 whole entry): as the sequence (Q96QP1 whole entry V1092A) above, with A1092V counted along it

As to `COc1cccc2ccc(NC(=O)c3c(F)cc(N4CCNCC4)cc3F)nc12` [Compound Q001, 2,6-difluoro-N-(8-methoxyquinolin-2-yl)-4-(piperazin-1-yl)benzamide], the inhibition (usually the change of the read-out against control, counted positive when it falls) at 6 µM came out at 69% in test [1] and 68% in test [2].

In the case of `O=C(Nc1nc2c(F)cc(F)cc2s1)c1c(F)cc(N2CCNCC2)cc1F` [Compound T035, N-(4,6-difluorobenzo[d]thiazol-2-yl)-2,6-difluoro-4-(piperazin-1-yl)benzamide], inhibition on ALPK1 was half-maximal at 1340 nM (IC50).

On to `C#Cc1cccc2sc(NC(=O)c3c(Cl)cc(N4CCNCC4)cc3Cl)nc12` [Compound T048, 2,6-dichloro-N-(4-ethynylbenzo[d]thiazol-2-yl)-4-(piperazin-1-yl)benzamide], for which the inhibition at 6 µM in test [1] stood at 66%.

`COc1cccc2ccc(NC(=O)c3c(F)ccc(N4CCNCC4)c3F)nc12` [Compound Q005, 2,6-difluoro-N-(8-methoxyquinolin-2-yl)-3-(piperazin-1-yl)benzamide] yielded an inhibition at 6 µM in test [2] of 52%.

`COc1cccc2sc(NC(=O)c3c(F)cc(N4CCNCC4)cc3F)nc12` [Compound T017, 2,6-difluoro-N-(4-methoxybenzo[d]thiazol-2-yl)-4-(piperazin-1-yl)benzamide hydrochloride] showed an inhibition at 6 µM in test [2] of 50%.

Turning to `C#Cc1cccc2sc(NC(=O)c3c(C)cc(N4CCNCC4)cc3F)nc12` [Compound T050, N-(4-ethynylbenzo[d]thiazol-2-yl)-2-fluoro-6-methyl-4-(piperazin-1-yl)benzamide], at ALPK1, the IC50 (in general, the concentration that gives 50% inhibition) amounted to 15 nM.

On to `C#Cc1cccc2sc(NC(=O)c3c(F)cc(N4CCNCC4)cc3F)nc12` [Compound T007, N-(4-ethynylbenzo[d]thiazol-2-yl)-2,6-difluoro-4-(piperazin-1-yl)benzamide], for which the IC50 in test [3] came to 21 nM. The molecule also displayed an inhibition at 6 µM in test [1] of 91%. Further, in test [4], the “mRNA expression of aorta IL-6, CXCL-1, CXCL-10, CCL-2” value is “significantly decreased”; the “mRNA expression of cardiac muscle TNF-α, IL-1b, IL-6, CXCL-1, CXCL-10, CXCL-11, CCL-2 and CCL-5” value is reported as “significantly decreased”; the “mRNA expression of coronary artery TNF-α, CXCL-1, CCL-2 and CCL-7” value is on record as “significantly decreased”. For the same molecule, 6 µM produced 95% inhibition in test [2]. Further, the “mRNA expression of PBMC CXCL-1” value in test [5] is on record as “significantly decreased”.
